From PubChem BioAssay (NCI)
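Protocol summary: plate cells (96-well), add compound at 5 concentrations, incubate 48 h, interpolate endpoints linearly. GI50 marks 50% less growth. TGI marks complete inhibition of growth.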 Where a SMILES comes first, the peptide text is derived from it. [ ]: non-standard residue; d: D form. The star is where a group is joined. ξ: configuration not given here. NMeF = CN[CH](Cc1ccccc1)C(=O)O; ξNMe2Val = CC(C)C(C(=O)*)N(C)C; NMeV = CN[CH](C(=O)O)C(C)C; ξNMeV = CNC(C(=O)O)C(C)C; Boc = CC(C)(C)OC(=O)*; OBn = c1ccc(CO*)cc1; OtBu = CC(C)(C)O*

How the values were obtained:
Assay in all cases: inhibition of tumour cell growth, NCI panel, 48 h
[1] = tested on: UO-31 renal
[2] = tested on: SW-620 colon
[3] = tested on: HCC-2998 colon
[4] = tested on: U251 CNS
[5] = tested on: NCI-H23 lung
[6] = tested on: OVCAR-8 ovarian
[7] = tested on: NCI/ADR-RES ovarian
[8] = tested on: BT-549 breast
[9] = tested on: PC-3 prostate
[10] = tested on: OVCAR-3 ovarian

Structure (SMILES)	GI50 [1] [µM]	TGI [1] [µM]	GI50 [2] [µM]	TGI [2] [µM]	GI50 [3] [µM]	TGI [3] [µM]	GI50 [4] [µM]	TGI [4] [µM]	GI50 [5] [µM]	TGI [5] [µM]	GI50 [6] [µM]	TGI [6] [µM]	TGI [7] [µM]	TGI [8] [µM]	TGI [9] [µM]	TGI [10] [µM]
O=C1C(=C([O-])c2ccccc2)C(=O)c2ccccc21.O=C1C(=C([O-])c2ccccc2)C(=O)c2ccccc21.[Ni+2]	27.2	> 100	58.9	> 100	58.9	> 100	34.5	> 100	37.4	> 100	48.1	> 100				
COC(=O)C12Oc3ccc(-c4ccc5c(c4O)C(O)=C4C(=O)CC(C)C(O)C4(C(=O)OC)O5)c(O)c3C(O)=C1C(=O)CC(C)C2O (stereo not drawn)		0.858		> 100				3.05				> 100	> 100	8.77	1.43	
CC(C)C(C(=O)N(C)[C@H](C(=O)N1CCC[C@H]1C(=O)N(C)[C@@H](Cc1ccccc1)C(=O)OCc1ccccc1)C(C)C)N(C)C(=O)[C@@H](NC(=O)OC(C)(C)C)C(C)C (stereo partly drawn) (Boc-V[ξNMeV][NMeV]P[NMeF]-OBn)		> 31.6		> 31.6				> 31.6		> 100		> 31.6				> 100
C=C(C)CCC1C=[N+]([O-])OC(C)(C)C1(C)C (stereo not drawn)		> 100		> 100		> 100		> 100				> 100	> 100			> 100
COc1ccccc1C(=O)OCC1CCCN2CCCCC12 (stereo not drawn)		> 100		> 100		42.2		73.1		> 100		45.8	> 100	54.6	> 100	
COc1ccc([C@H]2CC3C(=O)N(c4ccc(OC)cc4)C(=O)C3c3[nH]c4ccccc4c32)cc1 (stereo partly drawn)		> 100		> 100		> 100		> 100		> 100		> 100				> 100
CCOS(=O)(=O)c1ccc(-c2c3nc(c(-c4ccc(S(=O)(=O)OCC)cc4)c4ccc([nH]4)c(-c4ccc(S(=O)(=O)OCC)cc4)c4nc(c(-c5ccc(S(=O)(=O)OCC)cc5)c5ccc2[nH]5)C=C4)C=C3)cc1		> 31.6		> 31.6		> 31.6		> 31.6		> 31.6		> 31.6	> 31.6	> 31.6	> 31.6	
N#COc1ccc(Oc2ccc(OC#N)cc2)cc1		> 100				> 100		> 100		> 100		> 100				> 100
COc1ccc(-c2nnc3n(C)c4ccccc4n3c2=O)cc1		> 100		> 100		> 100		84.9		> 100		> 100	> 100	> 100	> 100	
O=c1[nH]c2ccc(CC(=S)N3CCOCC3)cc2o1				> 100				> 100		> 100		> 100	> 100	> 100	> 100	> 100
NC(=O)/N=C/c1c(O)c2ccccc2oc1=O		> 100		> 100		> 100				> 100		> 100				> 100
O=C1c2cccnc2-c2nccc3c2c1nc1ccccc13		0.634		0.237				0.703		0.518		1.61	0.673	0.618	1.58	0.0987
CC(C)C(C(=O)N(C)C(Cc1ccccc1)C(=O)N(C)C(C(=O)N(C)C(C(=O)N1CCCC1C(=O)OC(C)(C)C)C(C)C)C(C)C)N(C)C (stereo not drawn) (ξNMe2Val-[NMeF][NMeV][NMeV]P-OtBu; configuration not given here)		> 100		> 100		53.3				> 100		> 100				> 100
CCN(CC)CCC1CCCCN1CC(=O)N1c2cc(Cl)ccc2NC(=O)CC1C (stereo not drawn)		> 100				> 100		> 100		> 100		> 100			> 100	> 100
COC(=O)c1c(O)ccc2c1c1c(n2Cc2cccc(C)c2)C(=O)c2ccccc2C1		> 75		> 75				66.1		> 75		> 75	> 75	> 75	27.6	> 75
CCCCCCCCCCCC[N+]12CC[N+](C)(CC1)CC2		> 100		> 100		23		29.9		60.9		> 100				> 100
CSC(C1c2ccccc2N(C)c2[nH]c(=O)n(C)c(=O)c21)S(=O)(=O)c1ccc(C)cc1 (stereo not drawn)		> 100		> 100		> 100		> 100		> 100		> 100				> 100
CC#CCCCC1(C)CCNC1=S (stereo not drawn)		> 10		> 10		> 10		> 10		> 10		> 10		> 10	> 10	> 10
COC(=O)C(CCC1(C)OCCO1)=[N+]=[N-]		> 100		> 100		> 100		> 100		> 100		> 100				> 100
C/C(=N\NC(N)=S)c1nc2ncccc2[nH]1		82.1		> 100		> 100		> 100				> 100	> 100	> 96.7	> 100	> 100
O=S(=O)(/N=C(\NO)Nc1ccc(Cl)cc1)c1cc2ccccc2s1		48.7		82				29.1		30.5		30.7	38.7	31.6	27.7	32.4
O=C1Nc2ccc(Cl)c(I)c2C1=O		38.8		36.9		27.7		31.2		37.6		38.1				52.3
CCOC(=O)N1CCC2(CC1)C[C@@](C(C)=O)(c1ccccc1)C(C)O2 (stereo partly drawn)		> 100		> 100		> 100		> 100		> 100		> 100	> 100		> 100	> 100
COc1ccc(NC(=O)C(=O)Cc2ccc([N+](=O)[O-])c([N+](=O)[O-])c2CC(=O)C(=O)Nc2ccc(OC)cc2OC)c(OC)c1		> 100		> 100		> 100		> 100		> 100		> 100				> 100
